Source: patent publication US7935708B2, “Dihydropyrazolopyrimidinone derivatives” (MSD K.K., priority 2006, dated 2011)

Test system: Cdc2 (Cdk1) tyrosine 15 phosphorylation in WiDr cells
Assay: Cdc2 (Cdk1) tyrosine 15-phosphorylation-inhibitory effect in gemcitabine-treated WiDr cells (ELISA)
Assay type: cell-based
Settings: Homo sapiens, gemcitabine 100 nM 24 hours, then test compound with nocodazole 8 hours, read-out: Cdc2-Y15 Phosphorylation-Inhibitory Effect (WiDr, + gemcitabine) (EC50)
Text: Pharmaceutical Text 2 (Method of Determining Drug Potency in Cells (Cdc2 (Cdk1) Tyrosine 15-Phosphorylation-Inhibitory Effect))
Fetal bovine serum (FBS) was obtained from Morgate; media RPMI1640 and DMEM were from Invitrogen; camptothecin was from Sigma; gemcitabine was from Nippon Eli Lilly; nocodazole and protease inhibitor cocktail were from Sigma; rabbit anti-Cdc2 antibody and mouse anti-Cdc2 antibody were from Santa Cruz Biotechnology; rabbit anti-tyrosine 15-phosphorylated Cdc2 antibody and horseradish peroxidase-labeled anti-mouse IgG antibody were from Cell Signaling Technology; sure blue reserve TMB peroxidase substrate was from Kirkegaard and Perry Laboratories.
Human non-small cell lung cancer cells (NCI-H1299) and human colon cancer cells (WiDr) were obtained from American Type Culture Collection (ATCC).
c) Method of Effect Determination:
In the method of using WiDr cells, the cells were suspended in DMEM containing 10% FBS, and the cell suspension was applied to a 96-well Nunclondelta-processed plastic plate in an amount of 2000 cells/100 μL/well, in which the cells were incubated overnight in 5% CO2-95% air at 37° C. Gemcitabine was dissolved in PBS, and diluted with DMEM containing 10% FBS, and then this was applied to the plate on which the cells had been previously sowed, in an amount of 50 μL/well in such a manner that the final concentration of gemcitabine could be 100 nM. Then, the cells were incubated for 24 hours at 37° C. in 5% CO2-95% air. The test compound was stepwise diluted with DMSO, then diluted with 1200 nM nocodazole-containing DMEM containing 10% FBS, and applied to the plate on which the gemcitabine-treated cells had been sowed, in an amount of 50 μL/well. The cells were incubated for 8 hours at 37° C. in 5% CO2-95% air, then the culture was removed, and a cytolytic buffer was added to the plate in an amount of 100 μL/well, shaken at 4° C. for 2 hours, then frozen at −80° C., and melted to give a cell solution. Cdc2 and tyrosine 15-phosphorylated Cdc2 in the cell solution were determined through ELISA, and the ratio of tyrosine 15-phosphorylated Cdc2 to Cdc2 was calculated to obtain the 50% phosphorylation-inhibitory concentration of the test compound to the cells (EC50, nM). Cdc2 was determined through ELISA as follows: A rabbit anti-Cdc2 antibody solution, which had been diluted 200-fold with 50 mM carbonate-bicarbonate buffer (pH 9.6), was applied to a 96-well maxisorp plastic plate in an amount of 50 μL/well, and statically kept overnight at 4° C. so as to fix the antibody on the plate. Next, this was washed three times with PBS, and 5% BSA/PBS was added thereto in an amount of 300 μL/well, and statically kept at room temperature for 2 hours, and then again washed three times with PBS. A mouse anti-Cdc2 antibody solution that had been diluted 100-fold with 1% BSA/TBS-T was added to it in an amount of 50 μL/well, and the cell solution was added thereto in an amount of 10 μL/well and statically kept overnight at 4° C. Next, this was washed three times with 0.1% BSA/TBS-T, and then a horseradish peroxidase-labeled anti-mouse IgG antibody solution that had been diluted 2000-fold with 1% BSA/TBS-T was added thereto in an amount of 70 μL/well, and statically kept at room temperature for 3 hours. Finally, this was washed five times with 0.1% BSA/TBS-T, then a substrate of sure blue reserve TMB peroxidase was added to it in an amount of 100 μL/well, and left for coloration in a dark place at room temperature for 15 minutes. Then, 1 M hydrochloric acid was added to it in an amount of 100 μL/well to stop the reaction, and this was analyzed through colorimetry. […]

Structure (SMILES)	EC50 [nM]
C=CCn1c(=O)c2cnc(Nc3ccc(N4CCN(C)CC4)c(CO)c3)nc2n1-c1ccsc1 [Example 3, 2-allyl-6-{[3-(hydroxymethyl)-4-(4-methylpiperazin-1-yl)phenyl]amino}-1-(3-thienyl)-1,2-dihydro-3H-pyrazolo[3,4-d]pyrimidin-3-one]	130
C=CCn1c(=O)c2cnc(Nc3ccc(N4CCN(C)CC4)cc3)nc2n1-c1cccc(N2CCN(C)C2=O)n1 [Example 148, 2-allyl-1-[6-(3-methyl-2-oxoimidazolidin-1-yl)pyridin-2-yl]-6-{[4-(4-methylpiperazin-1-yl)phenyl]amino}-1,2-dihydro-3H-pyrazolo[3,4-d]pyrimidin-3-one]	86
